The values that follow come from patent US11390616B2 (BRISTOL-MYERS SQUIBB COMPANY, priority 2015, dated 2022).

One test deals with T1, human APJ receptor (Homo sapiens, UniProt P35414).
T1 construct: expressed in transfected cells; host or cells: HEK293
T1 sequence (P35414 1-380): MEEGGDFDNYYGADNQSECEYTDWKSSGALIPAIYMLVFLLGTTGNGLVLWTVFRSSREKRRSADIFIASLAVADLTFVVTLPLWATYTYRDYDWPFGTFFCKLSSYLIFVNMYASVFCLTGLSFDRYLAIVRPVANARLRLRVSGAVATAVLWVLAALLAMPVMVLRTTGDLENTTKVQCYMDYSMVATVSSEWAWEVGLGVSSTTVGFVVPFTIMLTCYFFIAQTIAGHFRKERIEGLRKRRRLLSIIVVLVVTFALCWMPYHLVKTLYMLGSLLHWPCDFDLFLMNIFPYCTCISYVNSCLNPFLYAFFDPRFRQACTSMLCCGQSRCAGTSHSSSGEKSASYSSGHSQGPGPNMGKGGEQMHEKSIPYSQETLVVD
The experiment in a line: Intracellular cAMP accumulation assay (APJ hcAMP, HTRF). It counts as cell-based. The settings on record: HEK293 cells stably expressing human APJ receptor; inhibition of forskolin-mediated cAMP production; read-out: APJ cAMP Potency range. The protocol:
Intracellular cAMP Accumulation Assay
HEK293 cells stably expressing human APJ receptor were used to assess the activity of compounds. Cultured cells were detached and resuspended in the cAMP Homogeneous Time-Resolved Fluorescence (HTRF) assay buffer (Cisbio cat; #62AM4PEJ). The assay was performed in 384-well assay plates (Perkin-Elmer; cat #6008289) according to assay protocol provided by the manufacturer. Serial dilutions of a compound together with assay buffer containing […] IBMX and 2 μM forskolin were added to each well containing 5,000 cells and incubated for 30 minutes at room temperature. Subsequently, cAMP D2 reagent was added in the lysis buffer followed by the EuK antibody (Cisbio; cat #62AM4PEJ) and incubated for 60 min. The fluorescence emission ratio was measured using fluorometer. The intracellular cAMP concentrations (compound-stimulated inhibition of forskolin-mediated cAMP production) were calculated by extrapolation from a standard curve using known cAMP concentrations. The EC50 values were obtained by fitting the data to a sigmoidal concentration-response curve with variable slope. The maximal achievable inhibition of forskolin-induced cAMP levels (Ymax) for each compound was expressed as relative percentage of inhibition attained using pyroglutamated apelin-13 ((Pyr1)apelin-13) peptide, which was set to 100%.
The examples disclosed below were tested in the APJ in vitro assays described above and were found having human APJ cyclic AMP (hcAMP) activity. The EC50 value of each compound is presented at the end of the example description.
The biological activity of the exemplified compounds of this invention determined by the assay described above is shown at the end of each example.
`CC[C@@H](c1cc(F)cc(F)c1)n1c(CCC2CC2)nc(=O)c(Cc2ccc(-c3ccncc3C)cc2)c1O` [Example 110, 2-(2-cyclopropylethyl)-1-[(1S)-1-(3,5-difluorophenyl)propyl]-6-hydroxy-5-{[4-(3-methylpyridin-4-yl)phenyl]methyl}-1,4-dihydropyrimidin-4-one]: the EC50 lay in the range of 0.01 to 10 nM.

Regarding `COc1cccc(OC)c1-n1c(C2CCCC2)nc(O)c(Cc2ccc(-n3ccccc3=O)cc2)c1=O` [Example 38, 2-cyclopentyl-3-(2,6-dimethoxyphenyl)-6-hydroxy-5-{[4-(2-oxo-1,2-dihydropyridin-1-yl)phenyl]methyl}-3,4-dihydropyrimidin-4-one], the EC50 was in the range of 0.01 to 10 nM.

Regarding `COc1cccc(OC)c1-n1c(CCC(C)C)nc(O)c(Cc2ccc(-n3cc(F)ccc3=O)cc2)c1=O` [Example 52, 3-(2,6-dimethoxyphenyl)-5-{[4-(5-fluoro-2-oxo-1,2-dihydropyridin-1-yl)phenyl]methyl}-6-hydroxy-2-(3-methylbutyl)-3,4-dihydropyrimidin-4-one], the EC50 was in the range of 0.01 to 10 nM.

Take `CC[C@@H](c1cc(F)cc(F)c1)n1c(CCC2CC2)nc(=O)c(Cc2ccc(-c3ccc(F)nc3C)cc2)c1O` [Example 107, 2-(2-cyclopropylethyl)-1-[(1S)-1-(3,5-difluorophenyl)propyl]-5-{[4-(6-fluoro-2-methylpyridin-3-yl)phenyl]methyl}-6-hydroxy-1,4-dihydropyrimidin-4-one]: the EC50 was 0.01 to 10 nM.

As to `CCCCc1nc(O)c(Cc2ccc(-n3ccc(Cl)cc3=O)cc2)c(=O)n1-c1c(OC)cccc1OC` [Example 42, 2-butyl-5-{[4-(4-chloro-2-oxo-1,2-dihydropyridin-1-yl)phenyl]methyl}-3-(2,6-dimethoxyphenyl)-6-hydroxy-3,4-dihydropyrimidin-4-one], the EC50 lay in the range of 0.01 to 10 nM.

With `CCc1cccc(CC)c1-n1c(-c2nc(C)cs2)nc(=O)c(Cc2ccc(-c3ccc(F)cc3C(N)=O)c(F)c2)c1O` [Example 82, 4′-{[1-(2,6-diethylphenyl)-6-hydroxy-2-(4-methyl-1,3-thiazol-2-yl)-4-oxo-1,4-dihydropyrimidin-5-yl]methyl}-2′,4-difluoro-[1,1′-biphenyl]-2-carboxamide], the EC50 was in the range of 0.01 to 10 nM.

Consider `CCCCc1nc(O)c(Cc2nc(-c3ccc(C(F)(F)F)cc3)no2)c(=O)n1-c1c(OC)cccc1OC` [Example 20, 2-butyl-3-(2,6-dimethoxyphenyl)-6-hydroxy-5-({3-[4-(trifluoromethyl)phenyl]-1,2,4-oxadiazol-5-yl}methyl)-3,4-dihydropyrimidin-4-one], for which the EC50 is 0.01 to 10 nM.

For `CCCCc1nc(O)c(Cc2ccccc2)c(=O)n1-c1c(OC)cccc1OC` [Example 19, 5-benzyl-2-butyl-3-(2,6-dimethoxyphenyl)-6-hydroxy-3,4-dihydropyrimidin-4-one], the EC50 fell in the range of 10 to 100 nM.

With `CCCCc1nc(O)c(Cc2ccc(-n3ccccc3=O)cc2)c(=O)n1-c1c(OC)cccc1OC` [Example 28, 2-butyl-3-(2,6-dimethoxyphenyl)-6-hydroxy-5-{[4-(2-oxo-1,2-dihydropyridin-1-yl)phenyl]methyl}-3,4-dihydropyrimidin-4-one], the EC50 lay within 0.01 to 10 nM.

Take `CCCCc1nc(=O)c(Cc2ccc(-c3ccc(F)nc3)cc2)c(O)n1[C@@H](CC)c1cccc(C#N)c1` [Example 97, 3-[(1S)-1-(2-butyl-5-{[4-(6-fluoropyridin-3-yl)phenyl]methyl}-6-hydroxy-4-oxo-1,4-dihydropyrimidin-1-yl)propyl]benzonitrile]: the EC50 was 0.01 to 10 nM.

As to `CCc1cccc(CC)c1-n1c(-c2ccn(CC)n2)nc(=O)c(Cc2ccc(-c3ccncc3C)c(F)c2)c1O` [Example 76, 1-(2,6-diethylphenyl)-2-(1-ethyl-1H-pyrazol-3-yl)-5-{[3-fluoro-4-(3-methylpyridin-4-yl)phenyl]methyl}-6-hydroxy-1,4-dihydropyrimidin-4-one], the EC50 was 0.01 to 10 nM.

On to `CCCCc1nc(O)c(Cc2ccc(-c3ccccc3)cc2)c(=O)n1-c1c(OC)cccc1OC` [Example 45, 5-({[1,1′-biphenyl]-4-yl}methyl)-2-butyl-3-(2,6-dimethoxyphenyl)-6-hydroxy-3,4-dihydropyrimidin-4-one], for which the EC50 is 0.01 to 10 nM.

Consider `Cc1ncccc1-c1ccc(Cc2c(O)n([C@H](c3cc(F)cc(C#N)c3)C(C)C)c(COC(C)C)nc2=O)cc1` [Example 121, 3-fluoro-5-[(1S)-1-(6-hydroxy-5-{[4-(2-methylpyridin-3-yl)phenyl]methyl}-4-oxo-2-[(propan-2-yloxy)methyl]-1,4-dihydropyrimidin-1-yl)-2-methylpropyl]benzonitrile], for which the EC50 lay in the range of 10 to 100 nM.

As to `CCCCc1nc(O)c(Cc2ccc(S(C)(=O)=O)cc2)c(=O)n1-c1c(OC)cccc1OC` [Example 7, 2-butyl-3-(2,6-dimethoxyphenyl)-6-hydroxy-5-[(4-methanesulfonylphenyl)methyl]-3,4-dihydropyrimidin-4-one], the EC50 is 10 to 100 nM.

In the case of `CCCCc1nc(O)c(Cc2ccc(C(=O)NCC)cc2)c(=O)n1-c1c(OC)cccc1OC` [Example 15, 4-{[2-butyl-1-(2,6-dimethoxyphenyl)-4-hydroxy-6-oxo-1,6-dihydropyrimidin-5-yl]methyl}-N-ethylbenzamide], the EC50 is 10 to 100 nM.

Turning to `CCOCc1nc(=O)c(Cc2ccc(-c3ccncc3C)cc2)c(O)n1[C@@H](COC)c1cc(F)cc(F)c1` [Example 122, 1-[(1R)-1-(3,5-difluorophenyl)-2-methoxyethyl]-2-(ethoxymethyl)-6-hydroxy-5-{[4-(3-methylpyridin-4-yl)phenyl]methyl}-1,4-dihydropyrimidin-4-one], the EC50 was 0.01 to 10 nM.

As to `CCCCc1nc(O)c(Cc2ccc(N3CCCCC3=O)cc2)c(=O)n1-c1c(OC)cccc1OC` [Example 35, 2-butyl-3-(2,6-dimethoxyphenyl)-6-hydroxy-5-{[4-(2-oxopiperidin-1-yl)phenyl]methyl}-3,4-dihydropyrimidin-4-one], the EC50 fell in the range of 0.01 to 10 nM.

With `CCOCc1nc(=O)c(Cc2ccc(-c3cccnc3C)cc2)c(O)n1[C@@H](COC)c1cc(F)cc(F)c1` [Example 123, 1-[(1R)-1-(3,5-difluorophenyl)-2-methoxyethyl]-2-(ethoxymethyl)-6-hydroxy-5-{[4-(2-methylpyridin-3-yl)phenyl]methyl}-1,4-dihydropyrimidin-4-one], the EC50 is 0.01 to 10 nM.

For the molecule `COc1cccc(OC)c1-n1c(CCC(C)C)nc(O)c(Cc2ccc(-n3ccccc3=O)cc2)c1=O` [Example 34, 3-(2,6-dimethoxyphenyl)-6-hydroxy-2-(3-methylbutyl)-5-{[4-(2-oxo-1,2-dihydropyridin-1-yl)phenyl]methyl}-3,4-dihydropyrimidin-4-one], the EC50 lay in the range of 0.01 to 10 nM.

As to `CC[C@@H](c1cc(F)cc(F)c1)n1c(CCC2CC2)nc(=O)c(Cc2ccc(-c3cccnc3C)cc2)c1O` [Example 109, 2-(2-cyclopropylethyl)-1-[(1S)-1-(3,5-difluorophenyl)propyl]-6-hydroxy-5-{[4-(2-methylpyridin-3-yl)phenyl]methyl}-1,4-dihydropyrimidin-4-one], the EC50 was in the range of 0.01 to 10 nM.

Consider `COc1cccc(OC)c1-n1c(COC(C)C)nc(O)c(Cc2ccc(-n3cc(C)ccc3=O)cc2)c1=O` [Example 58, 3-(2,6-dimethoxyphenyl)-6-hydroxy-5-{[4-(5-methyl-2-oxo-1,2-dihydropyridin-1-yl)phenyl]methyl}-2-[(propan-2-yloxy)methyl]-3,4-dihydropyrimidin-4-one], for which the EC50 lay within 0.01 to 10 nM.

Regarding `CCn1ccc(-c2nc(=O)c(Cc3ccc(-c4ccncc4C)cc3)c(O)n2-c2c(OC)cccc2OC)n1` [Example 62, 1-(2,6-dimethoxyphenyl)-2-(1-ethyl-1H-pyrazol-3-yl)-6-hydroxy-5-{[4-(3-methylpyridin-4-yl)phenyl]methyl}-1,4-dihydropyrimidin-4-one], the EC50 lay in the range of 0.01 to 10 nM.

The test is the same for the next values; noted with them: HEK293 cells stably expressing human APJ receptor; inhibition of forskolin-mediated cAMP production; read-out: Human APJ cAMP EC50 potency range.
For the molecule `CCCCc1nc(=O)c(Cc2ccc(-c3ccc(F)nc3C)cc2)c(O)n1[C@@H](CC)c1cccc(C#N)c1` [Example 95, (S)-3-(1-(2-butyl-5-(4-(6-fluoro-2-methylpyridin-3-yl)benzyl)-6-hydroxy-4-oxopyrimidin-1(4H)-yl)propyl)benzonitrile], the EC50 lay in the range of 0.01 to 10 nM.

Consider `COc1cccc(OC)c1-n1c(-c2ccc(F)cc2)nc(O)c(Cc2ccc(-n3cc(F)ccc3=O)cc2)c1=O` [Example 37, 3-(2,6-dimethoxyphenyl)-5-(4-(5-fluoro-2-oxopyridin-1(2H)-yl)benzyl)-2-(4-fluorophenyl)-6-hydroxypyrimidin-4(3H)-one], for which the EC50 lay within 0.01 to 10 nM.
